Laboratory results taken from patent US20100280268A1, “H[…] RESOLVED FL[…] TEST SYSTEM” (priority 2006, published 2010).
Ends that are not written are not given here.

These compounds were tested against T1, HIV six-helix bundle of gp41 (IQN36 / C34) (Human immunodeficiency virus type 1 group M subtype B, UniProt P04578) (assay: HIV-FRET IQN36/C34 homogeneous time resolved fluorescence test system (6-helix bundle formation)).
T1 construct: made in house; host or cells: chemical peptide synthesis, no expression host
Assay type: binding, Human Immunodeficiency Virus (HIV-1)
Protocol: All reagents were dissolved in 100 mM Hepes buffer pH 7.2. Test compounds were serially diluted and then added to 384-well plates. A final concentration of 10 nM S-APC and 100 nM IQN36-biotin were mixed in tubes, incubated for 30 min at room temperature and then added to well containing test compound. The compound/S-APC/IQN36-biotin mixture was incubated for another 2 hours at room temperature.

Q: For `Cc1ccc(S(=O)(=O)Nc2ccc(Oc3ccc(NS(=O)(=O)c4ccc(C)cc4)c(N(C)Cc4ccccc4)c3)cc2C(=O)O)cc1` [Compound 10, 5-[3-(Benzyl-methyl-amino)-4-(toluene-4-sulfonylamino)-phenoxy]-2-(toluene-4-sulfonylamino)-benzoic acid], which IC50 is on record?
A: 2.64 µM

Q: `Cc1ccc(S(=O)(=O)Nc2ccc(Oc3ccc(NS(=O)(=O)c4ccc(C)cc4)c(C(=O)O)c3)cc2Cc2ccccc2)cc1` [Compound 12, 5-[3-Benzyl-4-(toluene-4-sulfonylamino)-phenoxy]-2-(toluene-4-sulfonylamino)-benzoic acid] was tested. Which IC50 did it give?
A: 2.09 µM

Q: `Cc1ccc(S(=O)(=O)Nc2ccc(Oc3ccc(NS(=O)(=O)c4ccc(C)cc4)c(C(=O)O)c3)cc2OCc2ccccc2)cc1` [Compound 2, 5-[3-Benzyloxy-4-(toluene-4-sulfonylamino)-phenoxy]-2-(toluene-4-sulfonylamino)-benzoic acid] was tested. Which IC50 did it give?
A: 2.72 µM

Q: `CNc1cc(Oc2ccc(NS(=O)(=O)c3ccc(C)cc3)c(C(=O)O)c2)ccc1NS(=O)(=O)c1ccc(C)cc1` [Compound 13, 5-[3-Methylamino-4-(toluene-4-sulfonylamino)-phenoxy]-2-(toluene-4-sulfonylamino)-benzoic acid] was tested. Which IC50 did it give?
A: 2.69 µM

Q: Which IC50 does the source give for `Cc1ccc(S(=O)(=O)Nc2ccc(Oc3ccc(NS(=O)(=O)c4ccc(C)cc4)c(-c4ccccc4)c3)cc2C(=O)O)cc1` [Compound 6, 2-(Toluene-4-sulfonylamino)-5-[6-(toluene-4-sulfonylamino)-biphenyl-3-yloxy]-benzoic acid] here?
A: 3.16 µM

Q: `Cc1ccc(S(=O)(=O)Nc2ccc(Oc3ccc(NS(=O)(=O)c4ccc(C)cc4)c(C(=O)O)c3)cc2NCc2ccccc2)cc1` [Compound 8, 5-[3-Benzylamino-4-(toluene-4-sulfonylamino)-phenoxy]-2-(toluene-4-sulfonylamino)-benzoic acid] was tested. Which IC50 did it give?
A: 2.27 µM

Q: Which IC50 does the source give for `Cc1ccc(S(=O)(=O)Nc2ccc(Oc3ccc4c(c3)CCCN4S(=O)(=O)c3ccc(C)cc3)cc2C(=O)O)cc1` [Compound 3, 2-(4-methylphenylsulfonamino)-5-[1-(toluene-4-sulfonyl)-1,2,3,4-tetrahydro-quinolin-6-yloxy]-benzoic acid] here?
A: 2.88 µM

Q: Which IC50 does the source give for `CCCCNc1cc(Oc2ccc(NS(=O)(=O)c3ccc(C)cc3)c(C(=O)O)c2)ccc1NS(=O)(=O)c1ccc(C)cc1` [Compound 9, 5-[3-Butylamino-4-(toluene-4-sulfonylamino)-phenoxy]-2-(toluene-4-sulfonylamino)-benzoic acid] here?
A: 1.81 µM

Q: Which IC50 does the source give for `CCCCCCN(c1ccc(Oc2ccc(NS(=O)(=O)c3ccc(C)cc3)c(C(=O)O)c2)cc1)S(=O)(=O)c1ccc(C)cc1` [Compound 4, 5-{4-[Hexyl-(toluene-4-sulfonyl)-amino]-phenoxy}-2-(4-methylphenylsulfonamino)-benzoic acid] here?
A: 4.45 µM

Q: With `CCNc1cc(Oc2ccc(NS(=O)(=O)c3ccc(C)cc3)c(C(=O)O)c2)ccc1NS(=O)(=O)c1ccc(C)cc1` [Compound 11, 5-[3-Ethylamino-4-(toluene-4-sulfonylamino)-phenoxy]-2-(toluene-4-sulfonylamino)-benzoic acid] as the compound, how does the IC50 read?
A: 2.47 µM

Q: With `Cc1ccc(S(=O)(=O)Nc2ccc(Oc3ccc(NS(=O)(=O)c4ccc(C)cc4)c(C(=O)O)c3)cc2OCC(C)C)cc1` [Compound 7, 5-[3-Isobutoxy-4-(toluene-4-sulfonylamino)-phenoxy]-2-(toluene-4-sulfonylamino)-benzoic acid] as the compound, how does the IC50 read?
A: 3.27 µM

Q: For `CCCCCOc1cc(Oc2ccc(NS(=O)(=O)c3ccc(C)cc3)c(C(=O)O)c2)ccc1NS(=O)(=O)c1ccc(C)cc1` [Compound 5, 5-[3-pentyloxy-4-(toluene-4-sulfonylamino)-phenoxy]-2-(toluene-4-sulfonylamino)-benzoic acid], which IC50 is on record?
A: 3.48 µM

Q: “NFYDPLVFPSDEFDASISQVNEKINQSLAFIRKSDELLHNVNAGK [Compound C45, reference compound]” was tested. Which IC50 did it give?
A: > 10 µM

Q: For `COC(=O)c1cc(Cc2cc(Cc3ccc(NS(=O)(=O)c4ccc(C)cc4)c(C(=O)O)c3)cc(C(=O)O)c2NS(=O)(=O)c2ccc(C)cc2)ccc1NS(=O)(=O)c1ccc(C)cc1` [Compound 1], which IC50 is on record?
A: 3.27 µM
